{"source": "patent EP0269311A2", "about": "“Methods of treating bone diseases by administration of a cysteine proteinase inhibitor” (Merck & Co., Inc., priority 1986, dated 1988)", "key": {"metalloproteinases": {"test_system": "metalloproteinases", "conditions": "cited from earlier work"}, "serine proteinases": {"test_system": "serine proteinases", "conditions": "cited from earlier work"}, "papain": {"biological_target": "T1, papain (Carica papaya, UniProt P00784)", "T1 sequence (P00784 134-345)": "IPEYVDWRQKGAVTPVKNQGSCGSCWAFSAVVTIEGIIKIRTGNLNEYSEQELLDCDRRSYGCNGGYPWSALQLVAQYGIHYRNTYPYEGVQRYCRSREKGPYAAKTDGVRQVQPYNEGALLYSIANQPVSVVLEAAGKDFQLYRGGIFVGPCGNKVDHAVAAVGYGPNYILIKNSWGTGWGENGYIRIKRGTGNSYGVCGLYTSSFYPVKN", "conditions": "with the disappearance of the thiol group of papain; cited from earlier work"}, "serum Ca⁺⁺ [1]": {"test_system": "serum Ca⁺⁺", "experiment": "Rat model of secondary hyperparathyroidism (Ca++ deficient diet), serum Ca++", "format": "in vivo, Rats", "conditions": "intubated", "text": "In this model rats are fed a Ca⁺⁺ deficient diet, causing an enhanced release of parathyroid hormone (PTH) and secondary hyperparathyroidism. At this stage most of the serum Ca⁺⁺ is mobilized from bone. To maintain serum calcium levels within the normal range, bone resorption is stimulated by the released parathyroid hormone. This model was used to study the effect of Formula I compound on rats with secondary hyperparathyroidism. Rats (150-200 gr) were kept on a Ca⁺⁺ deficient diet for 7 days. Different doses of Formula I compound were intubated into animals (n=10) and serum Ca⁺⁺ was monitored at 0, 4, 8, 12 and 24 hours."}, "cathepsin B": {"biological_target": "cathepsin B (Homo sapiens, UniProt P07858)", "conditions": "cited from earlier work"}, "cathepsin H": {"biological_target": "T2, cathepsin H (Homo sapiens, UniProt P09668)", "T2 sequence (P09668 98-335)": "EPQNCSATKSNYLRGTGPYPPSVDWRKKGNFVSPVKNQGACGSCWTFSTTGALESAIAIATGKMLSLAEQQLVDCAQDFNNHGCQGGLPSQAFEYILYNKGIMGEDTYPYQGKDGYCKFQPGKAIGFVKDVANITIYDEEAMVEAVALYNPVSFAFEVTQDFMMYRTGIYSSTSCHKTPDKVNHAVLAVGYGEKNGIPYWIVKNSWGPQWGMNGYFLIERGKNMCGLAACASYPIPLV", "conditions": "cited from earlier work"}, "serum Ca⁺⁺ [2]": {"test_system": "serum Ca⁺⁺", "experiment": "Rat model of humoral hypercalcemia of malignancy (transplanted Rice 500 Leydig cell tumor), serum Ca++", "format": "in vivo, male Fisher rats", "conditions": "for Serum mg % Ca++: 40 mg/kg/day intubated once a day from two days after tumor transplantation", "text": "A rat model that closely mimics the human syndrome of Humoral Hypercalcemia of Malignancy was described by Insogna et al, Endocrinology 114, 888-896 (1984). In this model a Rice 500 Leydig cell tumor is transplated in male Fisher rats. […] These findings exactly parallel those in human humoral hypercalcemia of malignancy. The same model was used to study the effect of the formula I compound on lowering serum Ca⁺⁺ levels in rodents with established malignant hypercalcemia. Rats (150-200 gr) were intubated once a day with three different doses of the formula I compound including 10 mg, 25 mg and 80 mg/kg/day as shown in Figure 1. Control animals received no compound. The compound was given on days 10-15 after tumor transplantation when all animals were hypercalcemic. In experiment No. 2 (Table 1), rodents were intubated once a day with 40 mg/kg, of the formula I compound two days after tumor transplantation. These studies were utilized to examine whether the formula I compound could prevent tumor-induced hypercalcemia in these animals which generally appears 8-10 days after transplantation."}}}
{"smiles": "CC(C)C[C@H](NC(=O)[C@H]1O[C@@H]1C(=O)O)C(=O)NCCCCN=C(N)N", "note": "[Formula I compound, epoxysuccinyl-leucylamido (4-guanidino)butane]", "values": [{"measurement": "effect on metalloproteinases", "setting": "metalloproteinases", "value": "unaffected"}, {"measurement": "effect on serine proteinases", "setting": "serine proteinases", "value": "unaffected"}, {"measurement": "inhibition of papain", "setting": "papain", "value": "inhibit"}, {"measurement": "Serum mg % Ca++", "setting": "serum Ca⁺⁺ [1]; 10 mg, 0 hours", "value": "11.5 ± 0.5", "unit": "mg %"}, {"measurement": "Serum mg % Ca++", "setting": "serum Ca⁺⁺ [1]; 10 mg, 4 hours", "value": "10.6 ± 0.4", "unit": "mg %"}, {"measurement": "Serum mg % Ca++", "setting": "serum Ca⁺⁺ [1]; 10 mg, 8 hours", "value": "10.4 ± 0.5", "unit": "mg %"}, {"measurement": "Serum mg % Ca++", "setting": "serum Ca⁺⁺ [1]; 10 mg, 12 hours", "value": "10.2 ± 0.4", "unit": "mg %"}, {"measurement": "Serum mg % Ca++", "setting": "serum Ca⁺⁺ [1]; 10 mg, 24 hours", "value": "11.5 ± 0.6", "unit": "mg %"}, {"measurement": "Serum mg % Ca++", "setting": "serum Ca⁺⁺ [1]; 20 mg, 0 hours", "value": "11.3 ± 0.4", "unit": "mg %"}, {"measurement": "Serum mg % Ca++", "setting": "serum Ca⁺⁺ [1]; 20 mg, 4 hours", "value": "10.2 ± 0.3", "unit": "mg %"}, {"measurement": "Serum mg % Ca++", "setting": "serum Ca⁺⁺ [1]; 20 mg, 8 hours", "value": "9.7 ± 0.4", "unit": "mg %"}, {"measurement": "Serum mg % Ca++", "setting": "serum Ca⁺⁺ [1]; 20 mg, 12 hours", "value": "9.5 ± 0.3", "unit": "mg %"}, {"measurement": "Serum mg % Ca++", "setting": "serum Ca⁺⁺ [1]; 20 mg, 24 hours", "value": "12.0 ± 0.3", "unit": "mg %"}, {"measurement": "Serum mg % Ca++", "setting": "serum Ca⁺⁺ [1]; 60 mg, 0 hours", "value": "11.7 ± 0.6", "unit": "mg %"}, {"measurement": "Serum mg % Ca++", "setting": "serum Ca⁺⁺ [1]; 60 mg, 4 hours", "value": "9.8 ± 0.4", "unit": "mg %"}, {"measurement": "Serum mg % Ca++", "setting": "serum Ca⁺⁺ [1]; 60 mg, 8 hours", "value": "9.5 ± 0.3", "unit": "mg %"}, {"measurement": "Serum mg % Ca++", "setting": "serum Ca⁺⁺ [1]; 60 mg, 12 hours", "value": "8.9 ± 0.4", "unit": "mg %"}, {"measurement": "Serum mg % Ca++", "setting": "serum Ca⁺⁺ [1]; 60 mg, 24 hours", "value": "12.7 ± 0.4", "unit": "mg %"}, {"measurement": "drop of serum Ca⁺⁺", "setting": "serum Ca⁺⁺ [1]; most effective dose 40 mg/kg, in 12 hours", "value": 28.8, "unit": "%"}, {"measurement": "inhibition of cathepsin B", "setting": "cathepsin B", "value": "inhibit"}, {"measurement": "inhibition of cathepsin H", "setting": "cathepsin H", "value": "inhibit"}, {"measurement": "Serum mg % Ca++", "setting": "serum Ca⁺⁺ [2]; day 2", "value": "10.5 ± 0.3", "unit": "mg %"}, {"measurement": "Serum mg % Ca++", "setting": "serum Ca⁺⁺ [2]; day 4", "value": "10.1 ± 0.4", "unit": "mg %"}, {"measurement": "Serum mg % Ca++", "setting": "serum Ca⁺⁺ [2]; day 6", "value": "10.2 ± 0.2", "unit": "mg %"}, {"measurement": "Serum mg % Ca++", "setting": "serum Ca⁺⁺ [2]; day 8", "value": "10.3 ± 0.3", "unit": "mg %"}, {"measurement": "Serum mg % Ca++", "setting": "serum Ca⁺⁺ [2]; day 10", "value": "9.8 ± 0.4", "unit": "mg %"}, {"measurement": "Serum mg % Ca++", "setting": "serum Ca⁺⁺ [2]; day 11", "value": "10.3 ± 0.4", "unit": "mg %"}, {"measurement": "Serum mg % Ca++", "setting": "serum Ca⁺⁺ [2]; day 12", "value": "10.1 ± 0.3", "unit": "mg %"}, {"measurement": "Serum mg % Ca++", "setting": "serum Ca⁺⁺ [2]; day 13", "value": "10.4 ± 0.4", "unit": "mg %"}, {"measurement": "Serum mg % Ca++", "setting": "serum Ca⁺⁺ [2]; day 14", "value": "10.5 ± 0.3", "unit": "mg %"}, {"measurement": "Serum mg % Ca++", "setting": "serum Ca⁺⁺ [2]; day 15", "value": "10.6 ± 0.4", "unit": "mg %"}, {"measurement": "tumor induced hypercalcemia (established)", "setting": "serum Ca⁺⁺ [2]; given orally, 10 mg, 25 mg and 80 mg/kg/day on days 10-15 after tumor transplantation (Figure 1)", "value": "block"}, {"measurement": "tumor induced hypercalcemia (prevention)", "setting": "serum Ca⁺⁺ [2]; given orally, 40 mg/kg once a day from two days after tumor transplantation (Table I)", "value": "can prevent"}]}
